Tests used:
[1] = biological target: CDK2/Cyclin E1 (Homo sapiens, UniProt P24941); assay: ADP-Glo Luminescent Kinase Assay (CDK2/E1-37C); assay type: biochemical; conditions: 0.18 nM CDK2/Cyclin E1, 100 μM ATP, 1.5 μM Histone H1, 37° C., 60 min pre-incubation; read-out: ADPGLO (CDK2/E1-37C): IC50
Method: Inhibition of CDK2/Cyclin E1 activity by the presence of small molecules was evaluated using ADP-Glo Luminescent Kinase Assay (Promega). Activated CDK2/Cyclin E1 was incubated with its substrate Histone H1 (SignalChem H10-54N) in the kinase reaction buffer (100 μM ATP, 50 mM HEPES pH 7.5, 10 mM MgCl2, 1 mM EDTA, 2 mM DTT, 0.01% Brij35, 0.5 mg/mL BSA). Luminescence was recorded with an Envision plate reader (PerkinElmer).
Dose titrations of inhibitors in 100% DMSO were combined with 0.36 nM CDK2/Cyclin E1 in reaction buffer. The mixtures were incubated for 60 minutes at 37° C. before the addition of ATP and Histone H1 substrate to initiate the kinase reaction. The final conditions were 0.18 nM CDK2/Cyclin E1, 100 μM ATP, and 1.5 μM Histone H1. The reactions were incubated at 37° C. for 90 minutes before being stopped with the addition of ADP-Glo reagent. This mixture was incubated at room temperature for 60 minutes before Kinase Detection Solution is added to generate luminescence. The stopped reactions were analyzed on an Envision plate reader. The conversion ratios were normalized to yield % activity, plotted against compound concentration, and fit to a four-parameter equation to determine the IC50 for each compound.

[2] = test system: Kuramochi cells; assay: IncuCyte cell proliferation assay; assay type: cell-based; conditions: Kuramochi cells labeled with mApple-H2B, cell count 0 to 72 hours, 20 μM top concentration; read-out: IncuCyte Kuramochi RB-WT: IC50
Method: IncuCyte® assay was used to measure the effect of disclosed compounds on cell proliferation. Fluorescent microscopy images of cells were taken immediately after compound treatment and 72 hours later. Image analysis software was used to obtain cell counts as a function of compound concentration. Kuramochi cells labeled with mApple-H2B were seeded on 384-well assay-ready plates. Plates were placed in an IncuCyte® (Sartorius) and scanned at 0 and 72 hours. IncuCyte® software was used to count the number of fluorescent nuclei in each well. The fold change in cell count from 0 to 72 hours in wells treated with increasing compounds concentrations (10 pts, 1/2 log dilution, 20 μM top concentration) was normalized to DMSO control wells. The normalized cell counts were fit with dose response curves and a […] was calculated.

Row | Compound | IC50 [1] [µM] | IC50 [2] [µM]
1 | C[C@@H](OCC12CCC(CC1)OC2)[C@H](NC(=O)[C@@H]1CN(C(=O)c2cnn(CC3CCNCC3)c2)CC12CN(C(=O)C1(C(F)(F)F)CC1)C2)C(=O)N1CCC(c2ccccc2C(=O)O)CC1 [Example I-101] | 0.5 to 5 | > 20
2 | C[C@@H](OCC12CCC(CC1)OC2)[C@H](NC(=O)[C@@H]1CN(C(=O)c2cnn(Cc3ccccc3C(=O)O)c2)CC12CN(C(=O)[C@H]1CC1(C)C)C2)C(=O)N1CCC2(CCNCC2)CC1 [Example I-96] | < 0.5 | > 20
3 | CC1(C)C[C@@H]1C(=O)N1CC2(CN(C(=O)c3cncs3)C[C@H]2C(=O)N2CCN(CC3CCCCC3)C(CC(=O)O)C2)C1 (stereo partly drawn) [Example I-6, 2-(1-(cyclohexylmethyl)-4-((S)-2-((S)-2,2-dimethylcyclopropane-1-carbonyl)-6-(thiazole-5-carbonyl)-2,6-diazaspiro[3.4]octane-8-carbonyl)piperazin-2-yl)acetic acid] | > 10 | > 20
4 | COC(=O)CCNC(=O)[C@@H](NC(=O)[C@@H]1CN(C(=O)c2cnn(Cc3ccc(C(F)(F)F)cc3)c2)CC12CN(C(=O)C1(C(F)(F)F)CC1)C2)[C@@H](C)OCC12CCC(CC1)OC2 [Example I-84] | 0.5 to 5 | < 0.5
5 | C[C@@H](OCC12CCC(CC1)OC2)[C@H](NC(=O)[C@@H]1CN(C(=O)c2cnn(Cc3ccc(C(F)(F)F)cc3)c2)CC12CN(C(=O)C1(C(F)(F)F)CC1)C2)C(=O)N1CCC(c2ccc(C(=O)O)c(O)c2)CC1 [Example I-81, 4-(1-(O-((2-Oxabicyclo[2.2.2]octan-4-yl)methyl)-N—((S)-6-(1-(4-(trifluoromethyl)benzyl)-1H-pyrazole-4-carbonyl)-2-(1-(trifluoromethyl)cyclopropane-1-carbonyl)-2,6-diazaspiro[3.4]octane-8-carbonyl)-L-threonyl)piperidin-4-yl)-2-hydroxybenzoic acid] | < 0.5 | > 20
6 | C[C@H](OCC12CCC(CC1)OC2)[C@@H](NC(=O)[C@@H]1CN(C(=O)c2cnc(O)cn2)CC12CN(C(=O)C1(C(F)(F)F)CC1)C2)C(=O)N1CCC(c2ccc(C(F)(F)F)c(C(=O)O)c2)CC1 [Example I-82, 5-(1-(O-((2-oxabicyclo[2.2.2]octan-4-yl)methyl)-N—((S)-6-(5-hydroxypyrazine-2-carbonyl)-2-(1-(trifluoromethyl)cyclopropane-1-carbonyl)-2,6-diazaspiro[3.4]octane-8-carbonyl)-D-threonyl)piperidin-4-yl)-2-(trifluoromethyl)benzoic acid] | – | > 20
7 | C[C@@H](OCC1(C(=O)O)CCCCC1)[C@H](NC(=O)[C@@H]1CN(C(=O)c2cnn(Cc3ccc(C(F)(F)F)cc3)c2)CC12CN(C(=O)C1(C(F)(F)F)CC1)C2)C(=O)N1CCC(c2nccs2)CC1 [Example I-76, 1-((((2R,3S)-4-oxo-4-(4-(thiazol-2-yl)piperidin-1-yl)-3-((S)-6-(1-(4-(trifluoromethyl)benzyl)-1H-pyrazole-4-carbonyl)-2-(1-(trifluoromethyl)cyclopropanecarbonyl)-2,6-diazaspiro[3.4]octane-8-carboxamido)butan-2-yl)oxy)methyl)cyclohexanecarboxylic acid] | 5 to 10 | –
8 | C[C@@H](OCC12CCC(CC1)OC2)[C@@H](CN1CCC(C(=O)O)CC1)NC(=O)[C@@H]1CN(C(=O)c2cnn(Cc3ccc(C(F)(F)F)cc3)c2)CC12CN(C(=O)C1(C(F)(F)F)CC1)C2 [Example I-97, 1-((2R,3R)-3-((2-oxabicyclo[2.2.2]octan-4-yl)methoxy)-2-((S)-6-(1-(4-(trifluoromethyl)benzyl)-1H-pyrazole-4-carbonyl)-2-(1-(trifluoromethyl)cyclopropane-1-carbonyl)-2,6-diazaspiro[3.4]octane-8-carboxamido)butyl)piperidine-4-carboxylic acid] | > 10 | –

Source: patent publication US20260265262A1, “CDK2 INHIBITORS AND METHODS OF USING THE SAME” (Cedilla Therapeutics, Inc., priority 2022, published 2026)
